# Results published in patent publication US20190352663A1 (priority 2018, published 2019).
# Tests used:
# CsPR1 = type: in vivo, C. sinensis; settings: 2 mM sprayed on leaves; 48 hours
# CsSAG12-4 = type: in vivo, C. sinensis; settings: 2 mM sprayed on leaves; 48 hours
# CsSAG12-1 = type: in vivo, C. sinensis; settings: 2 mM sprayed on leaves; 48 hours; not statistically significant
# CsAALP = type: in vivo, C. sinensis; settings: 2 mM sprayed on leaves; 48 hours; not statistically significant
# PtoDC3000Δcip1 = type: cell-based, Pseudomonas syringae pv. tomato; settings: 100 μg/mL
# [1] = molecular target: CsRD21a-Flag expressed in N. benthamiana and secreted into the apoplast (Citrus sinensis); assay: cell-based or functional assay
# [2] = molecular target: papain (Sigma-Aldrich), a PLCP from papaya (papaya) (UniProt P00784); assay: cell-based or functional assay
# Chain of UniProt P00784 (P00784 134-345 limits assumed): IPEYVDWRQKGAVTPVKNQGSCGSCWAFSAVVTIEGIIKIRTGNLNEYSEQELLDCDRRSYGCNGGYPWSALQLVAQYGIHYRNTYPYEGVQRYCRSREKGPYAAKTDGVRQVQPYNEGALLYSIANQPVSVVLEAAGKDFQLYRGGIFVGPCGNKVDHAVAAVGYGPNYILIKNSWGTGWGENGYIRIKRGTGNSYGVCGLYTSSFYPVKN
compound,measurement,setting,value
"O=C(O)c1ccccc1O [SA, salicylic acid]",expression of CsPR1,CsPR1,increase
same,expression of CsSAG12-4,CsSAG12-4,significantly up-regulated
same,expression of CsSAG12-1,CsSAG12-1,trend of increased expression
same,expression of CsAALP,CsAALP,trend of increased expression
papain,inhibitory effect on bacterial growth in artificial media,PtoDC3000Δcip1,not observed
purified recombinant SDE1 protein (tag-free after removal of the His-SUMO tag),"CsRD21a activity (ABPP, ImageJ signal intensity) (% reduction at 0.8 µM SDE1)",[1],9
same,"CsRD21a activity (ABPP, ImageJ signal intensity) (% reduction at 1.6 µM SDE1)",[1],62
same,"CsRD21a activity (ABPP, ImageJ signal intensity) (% reduction at 3.2 µM SDE1)",[1],96
same,DCG-04 labeling of papain (ABPP) (% reduction at 1.6 µM SDE1),[2],53
